Laboratory results published in EP1276895B1, “METHOD FOR THE IDENTIFICATION OF ACTIVE SITE PROTEASE INACTIVATORS” (THE UNIVERSITY OF GEORGIA RESEARCH FOUNDATION, INC., priority 2000, dated 2001).
Starred links: 1 amine or outer side, 2 acyl side, 3 side chain; linkers in the order of their positions; H or OH if unused. Residues, ends and D or L forms follow the SMILES beside them. *: point of attachment. AFC = O=c1cc(C(F)(F)F)c2ccc(N*)cc2o1; Suc = O=C(CCC(=O)[*:2])[*:1]; Boc = CC(C)(C)OC(=O)*

Legend:
[1] = tested on: purified Taenia solium cysteine protease; experiment: Substrate cleavage screen of AFC-linked synthetic substrates (Step II), purified protease; format: biochemical; settings: 1 ug purified protease, 1 ug substrate, Citrate pH 4.9 with 0.01 M cysteine, 18 h, 37 °C
Procedure: In this step, the most efficacious substrate for detection of the cysteine protease (high Kcat substrate) was determined in vitro along with those substrates which were not well cleaved (low kcat substrates). From this point forth, the following conditions refer to all assays: "assay buffer" refers to 0.4 M Citrate, pH 4.9 (the pH optima of the protease). Incubation time was 18 hours at 37°C. These conditions were determined by our preliminary data to be best for kinetic evaluation of the protease. […] The experiments were conducted in […] Borosilicate mini-culture tubes (Fisher Scientific), and a fluorometer (Turner) was employed for detection of AFC cleavage.
Approximately 1 ug (or a proteolytically detectable amount) of the purified target cysteine protease was incubated individually, with 1 ug of each of the available substrates in 500 uL of assay buffer. During this setup, the substrate was pre-incubated in the assay buffer for a short period of time (20 minutes) in order to reach an equilibrated status before the addition of the protease. Cleavage assessments were based upon the property of the protease to cleave synthetic peptide substrates linked at the C-terminus to 7-Amino-4-Trifluoromethyl Coumarin (AFC) as previously described. AFC linked tripeptides, dipeptides, and monopeptides, (with a variety of permutations at P3-P1) were available from Enzyme Systems Products (Livermore, CA), and were used as the source of the subset. Following incubation of enzyme preparations overnight (18 h, 37 °C) with peptide in assay buffer (Citrate, pH 4.9, supplemented with 0.01 M cysteine), free AFC concentrations were measured fluorometrically (excitation 405 nm, emission 505 nm). The proteolytic cleavage released the AFC group, which was measurable as a free molecule by a standard fluorometer and converted into molar quantities, based upon a previously established standard curve. The simplicity of AFC detection by the fluorometer was a key factor which quickened and simplified the procedures.
In the assay, 1 ug of the purified Taenia cysteine protease was added to a saturating amount of Z-Phe-Arg-AFC (4X10^-5 M) in assay buffer. The experiment was conducted in triplicate and repeated at least 5 times until we were certain that variability in AFC cleavage was not statistically significant.
Vmax was calculated for the cleavage of substrates by the purified target protease and Vmax was calculated for substrates cleaved by the crude mix protease using conventional kinetic modeling calculations already described in the art.

[2] = tested on: Taenia solium crude mix; experiment: Competitor assay of vehicles against high Vmax substrate cocktails (Step III), crude mix; format: biochemical
Procedure: Step III for a crude mix proceeds it would for a purified protease, except that Vm is used instead of kcat.
(§1) The experiment began with a competitor test between the noncleaved low Vmax substrates and the highest Vmax substrate, Z-Phe-Arg-AFC. Concentrations were varied between the low Vmax substrate and Z-Phe-Arg-AFC, as described above under "refinement of assay" until a relative inhibition profile was obtained.
(§2) Percent inhibition was calculated as: %Inhibition =; ((AFC positive for"Y"-AFC negative for"Y")-(AFC test-AFC negative for"Y")X100)/(AFC positive for "Y"-AFC negative for "Y") [formula]
One of the most intriguing findings in this experiment was that a highly similar inhibition pattern for the competitor assay was noted when the crude mix was employed as the source of the target protease. Although there were some variations in the effects of inhibitor dilution, the most highly ranked vehicles remained inhibitory consistently in comparison to the profile with the target protease. The relative profile and composition of the top tiers of vehicles was identical. Z-LLL-AFC, Z-LLY-AFC, Mu-LY-AFC, Boc-VPR-AFC, Z-SY-AFC, Z-RR-AFC, Z-FLF-AFC, Z-LGR-AFC consistently presented as the top eight vehicles (Fig. 5b), respectively, based upon their V values (Table 2). […] It was notable that the three vehicles had very similar V values. […] As was mentioned, this vehicle along with Z-LLL-AFC and Z-LLY-AFC, were consistently the most inhibitory vehicles. The V values of the most inhibitory vehicle series are shown below in Table 2. Again, a clear break between the first and second tier vehicles could be noted with the V value. Table 2. Vehicles and V value rankings.

[3] = tested on: purified Taenia solium cysteine protease; experiment: Competitor assay of low Vmax substrates (vehicles) against high Vmax substrate cocktails (Step III), purified protease; format: biochemical; settings: robustness of inhibition
[4] = tested on: purified Taenia solium cysteine protease; experiment: as above; format: biochemical; settings: purified protease; for V Value: V = P * M, P = inhibition with first (1.4%) cocktail, M = inhibition with last (7.4%) cocktail, vehicle 8X10^-6M, each cocktail substrate 1X10^-6 M
Procedure: (We employed "Vmax" here although Kcat could also be used). Due to the lower number of substrates, a percentage was not chosen for the "BOTTOM %" " substrates. Alternately, all substrates which were not cleaved as determined by a value of 10 uM/hr or less, were chosen to be tested in this step for competitive ability. From this point forth, the term "vehicle" will represent low Vmax substrates that were capable of inhibiting cleavage of the percent cocktails. In this instance, we tested for "vehicles" which inhibited cleavage of the TOP 1.4% cocktail (they were delivered into the active site). Based upon our results from Step II, the top 1.4% cocktail was composed of Z-Phe-Arg-AFC, the highest cleaved substrate.
as §1
The mixture was allowed to equilibrate for a period of 30 minutes. Finally, active purified enzyme was added to the tubes at a concentration which was always 50 times less than the concentration of the high and low Vmax substrates, in order to insure saturation conditions. This concentration varied from purification to purification and the amount added depended upon the yield and specific activity of the purified protease.
Positive controls were set up similarly as described for test controls, except that solvent was added in substitution for the low Vmax substrate (in a volume equal to the low Vmax volume addition). All of the substrates could be dissolved in dimethylsulfoxide (DMSO), and therefore, this was the solvent of choice. Negative controls were set up by adding the low Vmax and the high Vmax substrate in a tube without the protease. All potential non-proteolytic induced liberation of AFC was therefore controlled for in this tube (a feature which also insured stability of the AFC substrates, since these substrates will freely liberate AFC when unstable). A tube set will be established for this negative control.
All controls were set up in triplicate, and experiments repeated a minimum of five times. The assays were incubated at 37°C, for 18 hours overnight.
as §2
A 2.9% cocktail of the high Vmax substrates was made. This was composed of Z-FR-AFC and the second most cleaved substrate, Z-FAR-AFC. The vehicles promoted from the initial screenings above were again tested for competitive inhibition ability with the new cocktails. Their concentrations were set identically to those which were "fixed" in the previous protocols. In other words, 8X10^-6M of the vehicle was added to the culture tube with 1X10^-6 M of Z-FR-AFC and 1X10^-6 M of Z-FAR-AFC. Active protease was added last at a concentration that was 50 times less than the concentration of the high Vmax substrate (to ensure saturating conditions).
In similar experimental fashion, a 4.4%, 5.9%, and 7.4% cocktail were tested with each of the promising vehicles. Each percentage point represented an increase by one substrate. Each of the individual components in the cocktail were added at 1X10^-6 M each, to 8X10^-6 M of the vehicle. The composition of the cocktails was as follows: 4.4% cocktail: Z-FR-AFC, Z-FAR-AFC, and Z-AAK-AFC (third highest cleaved substrate); 5.9% cocktail: Z-FR-AFC, Z-FAR-AFC, Z-AAK-AFC, and AP-AFC (fourth highest cleaved substrate); 7.4% cocktail: […], Z-FAR-AFC, Z-AAK-AFC, AP-AFC, and Z-VLR-AFC. We stopped at this number of substrates in the cocktail, since confidence was obtained that inhibitory potential of vehicles could be "diluted out."
Finally, a manageable set of candidate vehicles was determined. […]

[5] = tested on: crude mix; experiment: Human IgG degradation inhibition test, western blot (Step IV), crude mix; format: biochemical, Taenia solium; settings: crude mix compared with purified proteinase; data not shown
Procedure: (§3) To conduct this assessment, a western blot was performed. IgG digestion was detected by incubating 20 ul of T. solium purified enzyme or T. so/ium extract with 1 ug of human IgG (Sigma, St. Louis) in a final volume of 100 ul of assay buffer. Exogenous thiol activation was assessed by incubating the assay in the presence or absence of cysteine. The catalytic class of the IgG protease was determined by pre-incubating the following proteinase inhibitors at their active concentrations, with the enzyme: E 64 (10^-6 M, cysteine proteinases), phenylmethylsulfonyl fluoride (PMSF) (10^-3 M, serine proteinases), pepstatin A (10^-6 M, aspartic proteinases), and 1,10 phenanthroline (10^-3 M, metalloproteinases), and the vehicle, Mu-Leu-Tyr-AFC (10^-3 M). After addition of IgG, the assay was incubated overnight (37°C, 18 hrs). Subsequently, 100 ul of the mixture was boiled in sodium dodecyl sulfate polyacrylamide gel electrophoresis (SDS-PAGE) sample buffer with 2% 2-mercaptoethanol, separated by 12.5% SDS-PAGE, and blotted onto a polyvinylidene difluoride membrane. Tris buffered saline containing 0.1% bovine serum albumin and 0.05% Tween 20 (TBS-BSA) was used to block nonspecific binding. […]

[6] = tested on: purified cysteine protease of Taenia solium; experiment: Human IgG degradation inhibition test, western blot (Step IV), purified enzyme; format: biochemical; settings: 18 hrs, 37°C, E 64 10^-6 M, vehicle 10^-3 M
Procedure: as §3

Row | Compound | cleavage of AFC-linked substrate (Vmax) [1] | Tier [2] | V Value ([2]; V = P * M) | percentage drop in inhibition between the 1.4% and the 7.4% cocktail [3] | inhibition with the final cocktail (7.4%) ([4]; 7.4% cocktail = Z-FR-AFC + Z-FAR-AFC + Z-AAK-AFC + AP-AFC + Z-VLR-AFC, 1X10^-6 M each, vehicle 8X10^-6 M) | V Value [4] | V Value ([4]; listed as B-VPR-AC) | concentration required for inhibition of IgG cleavage [5] | inhibition of cleavage of human IgG [6]
1 | CC(C)[C@H](NC(=O)OC(C)(C)C)C(=O)N1CCC[C@H]1C(=O)N[C@@H](CCCNC(=N)N)C(=O)Nc1ccc2c(C(F)(F)F)cc(=O)oc2c1 [B-VPR-AFC, Boc-Val-Pro-Arg-AFC] (Boc-Val-Pro-Arg-{AFC}) | noncleavable | 2 (The second tier was composed of those vehicles, which produced inhibition between 20-50% inhibition when in the presence of the 1.4% cocktail) | 0.12 | 38% | less than 20% | 0.116 | 0.120 | – | –
2 | CC(C)C[C@H](NC(=O)CCC(=O)O)C(=O)N[C@@H](Cc1ccc(O)cc1)C(=O)Nc1ccc2c(C(F)(F)F)cc(=O)oc2c1 [Suc-Leu-Tyr-AFC] (Suc-Leu-Tyr-{AFC}) | – | – | – | – | – | – | – | greater | inhibit
